Data as given in patent US7935687B2, “Methods for treating spinal muscular atrophy using tetracycline compounds” (Paratek Pharmaceuticals, Inc., priority 2007, dated 2011).

Experiments:
[1] = tested on: SMN2 mRNA; assay: In vitro cell-free splicing assay for inclusion of exon 7; type: biochemical; settings: HeLa cell nuclear extract, 30° C., 3 hours
Method: The following example illustrates how tetracycline compound of the invention are active in an in vitro cell-free assay for the inclusion of exon 7 in […] mRNA. SMN1 and SMN2 pre-mRNA were prepared by in vitro transcription using T7 RNA polymerase of minigene templates that include exon 6, a truncated portion of intron 6, exon 7, intron 7 and a portion of exon 8 in the presence of ^32P-UTP. Labeled RNA was purified on a denaturing polyacrylamide gel followed by phenol extraction and ethanol precipitation of the RNA.
In vitro cell-free splicing of SMN1 and SMN2 transcripts was carried out in a 10 μl reaction volume at 30° C. for 3 hours. The reactions contained 10 fmol of labeled pre-mRNA, 30% (3 VI) HeLa cell nuclear extract (in 20 mM HEPES, pH 7.4, 20% (v/v) glycerol, 0.1M KC1, 0.2 mM EDTA), 1.3% (w/v) polyvinyl alcohol, 1.56 mM MgCl2, 32 mM HEPES, pH 7.4, 0.5 mM ATP, 20 mM creatine phosphate and either 2 μl of test compound (in 20 mM HEPES, pH 7.4, 0.1M KC1, 0.2 mM EDTA) or buffer alone. Following incubation, 200 μl of a solution containing 0.3M NaAc and 0.2% SDS was added to the reaction. Proteins were removed by extraction with an equal volume of phenol and RNA was precipitated with 2.5 volumes of ethanol. RNA was resuspended in formamide sample buffer and separated on a 9% urea-denaturing polyacrylamide gel. Quantitation of splicing was based on phosphorimage analysis (Fujix BAS2000 or Fujifilm FLA-5100). In this assay, percentage exon 7 inclusion averages 12% for the unmutated SMN1 mRNA and 4% for the SMN2 mRNA.
The in vitro activities for exon 7 splicing are expressed as the Emax (the maximum percentage exon 7 inclusion observed) and Cmax (the lowest compound concentration at which the maximum inclusion occurs in μM). For Emax, percentage inclusion values of less than 10% are indicated by “*”, values of 10-20% are indicated by “**”, and values greater than 20% are indicated by “***”. For Cmax data, concentrations of greater than 40 μM are indicated by “*”, concentrations between 40 and 10 μM are represented by “**” and concentrations of less than 10 μM are represented by “***”.

[2] = tested on: S. aureus (SA RN450); assay: Antibacterial MIC, gram positive; type: cell-based; settings: CLSI methodology, 35° C., 18-24 hours; for MIC: Staphylococcus aureus
[3] = tested on: E. coli (EC D1-209); assay: Antibacterial MIC, gram negative; type: cell-based; settings: CLSI methodology, 35° C., 18-24 hours; for MIC: Escherichia coli

| Structure (SMILES) | Cmax (lowest compound concentration at which the maximum exon 7 inclusion occurs) [1] | Emax (maximum percentage exon 7 inclusion observed) [1] | MIC Gram Positive (SA RN450) [2] | MIC Gram Negative (EC D1-209) [3] | MIC [2] [mg/L] | MIC [3] [mg/L] |
| --- | --- | --- | --- | --- | --- | --- |
| CN(C)CCCNC(=O)c1cccc(-c2ccc(O)c3c2CC2CC4C(N(C)C)C(O)=C(C(N)=O)C(=O)C4(O)C(O)=C2C3=O)c1 (centres unmarked) [J] | *** (concentrations of less than 10 μM) | ** (values of 10-20%) | *** (Good antibacterial activity (e.g., less than about 4 μg/mL)) | * (weak antibacterial activity (greater than about 8 μg/mL)) |  |  |
| CN(C)C1C(O)=C(C(N)=O)C(=O)C2(O)C(O)=C3C(=O)c4c(O)ccc(C(=O)Cc5cncn5C)c4CC3CC12 (centres unmarked) [CG] | * (concentrations of greater than 40 μM) | ** (values of 10-20%) | *** (Good antibacterial activity (e.g., less than about 4 μg/mL)) | * (weak antibacterial activity (greater than about 8 μg/mL)) |  |  |
| CN(CCC#N)Cc1cccc(-c2ccc(O)c3c2CC2CC4C(N(C)C)C(O)=C(C(N)=O)C(=O)C4(O)C(O)=C2C3=O)c1 (centres unmarked) [BL] | * (concentrations of greater than 40 μM) | ** (values of 10-20%) | *** (Good antibacterial activity (e.g., less than about 4 μg/mL)) | * (weak antibacterial activity (greater than about 8 μg/mL)) |  |  |
| CN(C)CCCCNCc1ccc(O)c2c1C[C@H]1C[C@H]3[C@H](N(C)C)C(O)=C(C(N)=O)C(=O)[C@@]3(O)C(O)=C1C2=O [Compound CN, (4S,4aS,5aR,12aS)-4-Dimethylamino-7-[(4-dimethylamino-butylamino)-methyl]-3,10,12,12a-tetrahydroxy-1,11-dioxo-1,4,4a,5,5a,6,11,12a-octahydro-naphthacene-2-carboxylic Acid Amide] | *** (concentrations of less than 10 μM) | ** (values of 10-20%) |  |  | > 8 | > 8 |
| CON=Cc1ccc(-c2ccc(O)c3c2CC2CC4C(N(C)C)C(O)=C(C(N)=O)C(=O)C4(O)C(O)=C2C3=O)o1 (centres unmarked) [AZ] | *** (concentrations of less than 10 μM) | ** (values of 10-20%) | *** (Good antibacterial activity (e.g., less than about 4 μg/mL)) | * (weak antibacterial activity (greater than about 8 μg/mL)) |  |  |
| COCCNC(=O)c1cccc(-c2ccc(O)c3c2CC2CC4C(N(C)C)C(O)=C(C(N)=O)C(=O)C4(O)C(O)=C2C3=O)c1 (centres unmarked) [L] | * (concentrations of greater than 40 μM) | ** (values of 10-20%) | *** (Good antibacterial activity (e.g., less than about 4 μg/mL)) | * (weak antibacterial activity (greater than about 8 μg/mL)) |  |  |
| CN(C)C1C(O)=C(C(N)=O)C(=O)C2(O)C(O)=C3C(=O)c4c(O)ccc(-c5cccc(CCCO)c5)c4CC3CC12 (centres unmarked) [CM] | *** (concentrations of less than 10 μM) | ** (values of 10-20%) | *** (Good antibacterial activity (e.g., less than about 4 μg/mL)) | * (weak antibacterial activity (greater than about 8 μg/mL)) |  |  |
| CN(C)C1C(O)=C(C(N)=O)C(=O)C2(O)C(O)=C3C(=O)c4c(O)ccc(-c5coc(CN6CCCCC6)c5)c4CC3CC12 (centres unmarked) [BF] | *** (concentrations of less than 10 μM) | ** (values of 10-20%) | *** (Good antibacterial activity (e.g., less than about 4 μg/mL)) | *** (Good antibacterial activity (e.g., less than about 4 μg/mL)) |  |  |
| COc1ccc(-c2ccc(O)c3c2CC2CC4C(N(C)C)C(O)=C(C(N)=O)C(=O)C4(O)C(O)=C2C3=O)cc1CNCC(N)=O (centres unmarked) [BE] | *** (concentrations of less than 10 μM) | ** (values of 10-20%) | *** (Good antibacterial activity (e.g., less than about 4 μg/mL)) | * (weak antibacterial activity (greater than about 8 μg/mL)) |  |  |
| CN(C)CCCCNC(=O)c1cccc(-c2ccc(O)c3c2CC2CC4C(N(C)C)C(O)=C(C(N)=O)C(=O)C4(O)C(O)=C2C3=O)c1 (centres unmarked) [CL] | ** (concentrations between 40 and 10 μM) | *** (values greater than 20%) | ** (modest antibacterial activity (between about 4 and 8 μg/mL)) | * (weak antibacterial activity (greater than about 8 μg/mL)) |  |  |
| CN1CCN(Cc2ccc(-c3ccc(O)c4c3CC3CC5C(N(C)C)C(O)=C(C(N)=O)C(=O)C5(O)C(O)=C3C4=O)o2)CC1 (centres unmarked) [AY] | *** (concentrations of less than 10 μM) | *** (values greater than 20%) | *** (Good antibacterial activity (e.g., less than about 4 μg/mL)) | * (weak antibacterial activity (greater than about 8 μg/mL)) |  |  |
| CN(C)C1C(O)=C(C(N)=O)C(=O)C2(O)C(O)=C3C(=O)c4c(O)ccc(-c5cccc(C(=O)NCc6ccco6)c5)c4CC3CC12 (centres unmarked) [Y] | * (concentrations of greater than 40 μM) | ** (values of 10-20%) | *** (Good antibacterial activity (e.g., less than about 4 μg/mL)) | * (weak antibacterial activity (greater than about 8 μg/mL)) |  |  |
| CCN(CC)CCNC(=O)c1cccc(-c2ccc(O)c3c2CC2CC4C(N(C)C)C(O)=C(C(N)=O)C(=O)C4(O)C(O)=C2C3=O)c1 (centres unmarked) [O] | ** (concentrations between 40 and 10 μM) | * (percentage inclusion values of less than 10%) | ** (modest antibacterial activity (between about 4 and 8 μg/mL)) | * (weak antibacterial activity (greater than about 8 μg/mL)) |  |  |
| CN(C)C1C(O)=C(C(N)=O)C(=O)C2(O)C(O)=C3C(=O)c4c(O)ccc(C(=O)CNc5cccnc5)c4CC3CC12 (centres unmarked) [CB] | ** (concentrations between 40 and 10 μM) | ** (values of 10-20%) | * (weak antibacterial activity (greater than about 8 μg/mL)) | * (weak antibacterial activity (greater than about 8 μg/mL)) |  |  |
| COc1ccc(CNCc2ccc(-c3ccc(O)c4c3CC3CC5C(N(C)C)C(O)=C(C(N)=O)C(=O)C5(O)C(O)=C3C4=O)cc2)cc1 (centres unmarked) [AW] | *** (concentrations of less than 10 μM) | ** (values of 10-20%) | *** (Good antibacterial activity (e.g., less than about 4 μg/mL)) | *** (Good antibacterial activity (e.g., less than about 4 μg/mL)) |  |  |
| CCOC(=O)CCNC(=O)c1cccc(-c2ccc(O)c3c2C[C@H]2C[C@H]4[C@H](N(C)C)C(O)=C(C(N)=O)C(=O)[C@@]4(O)C(O)=C2C3=O)c1 [Compound I, 3-[3-((6aS,10S,10aS,11aR)-8-Carbamoyl-10-dimethylamino-4,6,6a,9-tetrahydroxy-5,7-dioxo-5,6a,7,10,10a,11,11a,12-octahydro-naphthacen-1-yl)-benzoylamino]-propionic Acid Ethyl Ester] | * (concentrations of greater than 40 μM) | *** (values greater than 20%) |  |  | < 4 | > 8 |
| CCN(CC)CCNC(=O)c1cccc(-c2ccc(O)c3c2C[C@H]2C[C@H]4[C@H](N(C)C)C(O)=C(C(N)=O)C(=O)[C@@]4(O)C(O)=C2C3=O)c1 [Compound E, (4S,4aS,5aR,12aS)-7-[3-(2-Diethylamino-ethylcarbamoyl)-phenyl]-4-dimethylamino-3,10,12,12a-tetrahydroxy-1,11-dioxo-1,4,4a,5,5a,6,11,12a-octahydro-naphthacene-2-carboxylic Acid Amide] | ** (concentrations between 40 and 10 μM) | *** (values greater than 20%) |  |  | < 4 | > 8 |
